Assay results published in paper PMC9297976 (Journal of Applied Toxicology, 2021).

Tests used:
medaka ARβ (mArβ) [1] = target: T1, medaka ARβ (mArβ) (Oryzias latipes, UniProt D1MV73); assay: Medaka ARβ reporter gene assay, antagonist assay; assay type: cell-based, Japanese medaka (Oryzias latipes); settings: 11‐KT spiked at 50 nM (D); MAC = 3.2 × 10^−5 M
T1 sequence (D1MV73 1-744): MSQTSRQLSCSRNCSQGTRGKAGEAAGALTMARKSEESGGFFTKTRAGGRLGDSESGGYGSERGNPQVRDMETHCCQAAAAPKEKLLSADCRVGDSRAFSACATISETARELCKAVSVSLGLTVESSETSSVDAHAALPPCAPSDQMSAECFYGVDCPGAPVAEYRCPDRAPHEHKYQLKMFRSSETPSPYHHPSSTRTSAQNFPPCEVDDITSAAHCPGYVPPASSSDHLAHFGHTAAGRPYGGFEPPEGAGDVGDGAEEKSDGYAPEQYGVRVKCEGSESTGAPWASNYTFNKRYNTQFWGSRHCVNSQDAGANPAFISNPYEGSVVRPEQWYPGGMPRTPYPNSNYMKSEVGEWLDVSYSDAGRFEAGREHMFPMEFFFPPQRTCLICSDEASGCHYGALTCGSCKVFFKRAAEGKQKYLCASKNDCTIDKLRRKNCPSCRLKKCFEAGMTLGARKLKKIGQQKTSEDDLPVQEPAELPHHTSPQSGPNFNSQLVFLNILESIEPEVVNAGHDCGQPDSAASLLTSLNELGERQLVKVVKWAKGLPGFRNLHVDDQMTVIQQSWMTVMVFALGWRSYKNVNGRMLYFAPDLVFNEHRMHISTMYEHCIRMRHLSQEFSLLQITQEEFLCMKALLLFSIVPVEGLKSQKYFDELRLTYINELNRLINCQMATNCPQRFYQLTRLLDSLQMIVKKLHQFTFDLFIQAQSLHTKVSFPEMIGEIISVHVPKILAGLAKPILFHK

medaka Esr1 (mEsr1) [2] = target: T2, medaka Esr1 (mEsr1) (Oryzias latipes, UniProt P50241); assay: cell-based; parameters: species or system Japanese medaka (Oryzias latipes); settings: MAC = 1.0 × 10^−4 M
T2 sequence (P50241 1-620): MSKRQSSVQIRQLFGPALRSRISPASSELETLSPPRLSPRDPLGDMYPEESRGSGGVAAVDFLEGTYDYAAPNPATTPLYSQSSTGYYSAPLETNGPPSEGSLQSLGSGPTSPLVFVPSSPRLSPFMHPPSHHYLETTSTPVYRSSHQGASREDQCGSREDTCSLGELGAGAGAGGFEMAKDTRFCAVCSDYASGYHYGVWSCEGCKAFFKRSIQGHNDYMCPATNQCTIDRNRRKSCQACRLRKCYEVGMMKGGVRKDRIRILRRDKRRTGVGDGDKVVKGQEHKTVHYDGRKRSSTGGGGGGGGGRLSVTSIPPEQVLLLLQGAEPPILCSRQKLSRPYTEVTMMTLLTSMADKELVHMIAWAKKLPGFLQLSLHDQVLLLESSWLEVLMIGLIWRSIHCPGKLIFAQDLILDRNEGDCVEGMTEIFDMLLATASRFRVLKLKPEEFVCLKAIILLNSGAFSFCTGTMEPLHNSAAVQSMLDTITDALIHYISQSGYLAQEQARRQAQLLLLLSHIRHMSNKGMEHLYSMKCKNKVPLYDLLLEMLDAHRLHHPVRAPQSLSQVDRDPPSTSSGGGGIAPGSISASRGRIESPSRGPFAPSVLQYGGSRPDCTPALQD

medaka Esr1 (mEsr1) [3] = target: T2, medaka Esr1 (mEsr1); assay: Medaka Esr1 reporter gene assay, antagonist assay; assay type: cell-based, Japanese medaka (Oryzias latipes)
medaka ARβ (mArβ) [4] = target: T1, medaka ARβ (mArβ); assay: Medaka ARβ reporter gene assay, agonist assay; assay type: cell-based, Japanese medaka (Oryzias latipes); settings: MAC = 1.0 × 10^−4 M
[5] = system: Japanese medaka (Oryzias latipes); assay: Fish Short‐Term Reproduction Assay; assay type: in vivo; settings: for GSI Female / GSI Male / HSI Male / Length Female / Length Male / Weight Female / Weight Male: completion of exposure
[6] = 18.5 mg/L measured, 21 d, sig. ↑ vs control
[7] = measured concentration 2.25 mg/L
[8] = measured concentration 4.76 mg/L
[9] = measured concentration 8.72 mg/L
[10] = measured concentration 18.5 mg/L

## O=C1NC(=O)C(c2ccccc2)(c2ccccc2)N1 [PHT, Phenitoin, reference compound]
Medaka ARβ (mArβ) [1]
  Antagonistic activity: NE (MAC = 3.2 × 10^−5 M)^(D)
Medaka Esr1 (mEsr1) [2]
  Agonistic activity: NE (MAC = 1.0 × 10^−4 M)
Medaka Esr1 (mEsr1) [3]; antagonist assays
  Antagonistic activity on mEsr1 (in words): inhibited the transcriptional activity on mEsr1 by E2
Medaka Esr1 (mEsr1) [3]; mode of action in which IC50 or IC30 was obtained in RGA
  In vitro positive: aEsr: aEsr
Medaka Esr1 (mEsr1) [3]; read-out: Antagonistic activity IC50, E2 spiked at 0.2 nM (A)
  IC50: 2.1 µM
Medaka ARβ (mArβ) [4]
  Agonistic activity: NE (MAC = 1.0 × 10^−4 M)
[5]; 2.25 mg/L measured, 21 d
  Fertility rate: 92 ± 2.8%
  Hepatic VTG, female: 685 ± 110 ng/mg‐liver
  Hepatic VTG, male: 1.4 ± 0.5 ng/mg‐liver
  Mortality: 0.0%
  Mortality, number of dead fish: 0
  Number of fertilized eggs (per female per day): 18 ± 4.3
  Number of total eggs (per female per day): 20 ± 5.0
  SSC female (joint plates with papillary processes): 0 ± 0
  SSC male (joint plates with papillary processes): 95 ± 14
[5]; 4.76 mg/L and above
  Abnormal behavior (in words): fish frequently showed abnormal behavior such as loss of balance
[5]; 4.76 mg/L measured, 21 d
  Fertility rate: 86 ± 9.3%
  Hepatic VTG, female: 1,013 ± 183 ng/mg‐liver
  Hepatic VTG, male: 4.2 ± 6.7 ng/mg‐liver
  Mortality: 0.0%
  Mortality, number of dead fish: 0
  Number of fertilized eggs (per female per day): 17 ± 3.2
  Number of total eggs (per female per day): 20 ± 2.0
  SSC female (joint plates with papillary processes): 0 ± 0
[5]; 8.72 mg/L measured, 21 d
  Hepatic VTG, female: 661 ± 199 ng/mg‐liver
  Hepatic VTG, male: 1.0 ± 0.4 ng/mg‐liver
  Mortality: 4.2%
  Mortality, number of dead fish: 1
  SSC female (joint plates with papillary processes): 0 ± 0
  SSC male (joint plates with papillary processes): 99 ± 21
[5]; 8.72 mg/L measured, 21 d, sig. ↓ vs control
  Fertility rate: 49 ± 12%
[5]; 18.5 mg/L measured, 21 d
  Hepatic VTG, female: 693 ± 243 ng/mg‐liver
  Hepatic VTG, male: 1.4 ± 0.9 ng/mg‐liver
  SSC female (joint plates with papillary processes): 0 ± 0
  SSC male (joint plates with papillary processes): 85 ± 15
[5]; [6]
  Mortality: 33%
  Mortality, number of dead fish: 8
[5]; 18.5 mg/L measured, 21 d, sig. ↓ vs control
  Fertility rate: 18 ± 4.1%
[5]; 21 d
  Change of hepatic VTG levels in females (in words): did not reduce
  Fecundity, number of total eggs (in words): statistically significant decrease
[5]; LOEC on VTG induction in males
  LOECmVTG: ND (>18,500) μg/L
[5]; LOEC on reproduction (fecundity and/or fertility)
  LOECREPRO: 8,720 μg/L
[5]; lowest observed effect concentration on mortality
  LOECTOX: 4,760 μg/L
[5]; [7]
  GSI Female: 8.3 ± 0.8%
  GSI Male: 1.32 ± 0.77%
  HSI Male: 1.4 ± 0.36%
  Length Female: 35.9 ± 0.4 mm
  Length Male: 35.9 ± 0.6 mm
  Weight Female: 466 ± 26 mg
  Weight Male: 435 ± 26 mg
[5]; [8]
  GSI Female: 9.0 ± 1.4%
  GSI Male: 1.00 ± 0.26%
  HSI Male: 1.6 ± 0.35%
  Length Female: 35.5 ± 1.0 mm
  Length Male: 36.5 ± 1.5 mm
  Weight Female: 463 ± 10 mg
  Weight Male: 435 ± 63 mg
[5]; [9]
  GSI Female: 19.3 ± 10%
  GSI Male: 1.04 ± 0.31%
  HSI Male: 2.2 ± 0.30%
  Length Female: 36.0 ± 0.5 mm
  Length Male: 36.5 ± 0.1 mm
  Weight Female: 576 ± 28 mg
  Weight Male: 415 ± 31 mg
[5]; [10]
  GSI Female: 17.0 ± 9.7%
  GSI Male: 0.44 ± 0.26%
  HSI Male: 3.4 ± 0.47%
  Length Female: 37.5 ± 1.4 mm
  Length Male: 38.4 ± 1.4 mm
  Weight Female: 609 ± 67 mg
  Weight Male: 507 ± 83 mg
